This note sets out measurements from patent US20050101595A1, “N-containing cycloalkyl-substituted amino-thiazole derivatives and pharmaceutical compositions for inhibiting cell proliferation and methods for their use” (PFIZER INC., priority 2003, published 2005).

Assay [1] addresses human CDK4 and genetically truncated (1-264) cyclin D3 (Homo sapiens, UniProt P11802). Briefly: Inhibition of CDK4/Cyclin D Retinoblastoma Kinase Activity. The class given is biochemical. To be noted: apparent Ki, CDK4/truncated cyclin D3, Rb fragment substrate, 25 μM ATP. A digest of the protocol:
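Human CDK4/truncated cyclin D3 (1-264) complex from baculovirus-infected insect cells, 5 nM, phosphorylating Rb fragment (residues 386-928, His-tagged) with 25 μM [32/33P]ATP in HEPES pH 7.4, MgCl2, 2% DMSO at 30° C. for 20 min (60 min for tight binders). Filter-captured radioactivity by phosphorimager; apparent Ki from competitive or tight-binding fits.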

Assay [2] concerns the target CDK2/Cyclin A (Homo sapiens, UniProt P24941). Briefly: Inhibition of CDK2/Cyclin A Retinoblastoma Kinase Activity. Format: biochemical. To be noted: apparent Ki, CDK2/proteolyzed cyclin A, Rb fragment substrate, 25 μM ATP. A digest of the protocol:
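Baculovirus-expressed CDK2 complexed with proteolyzed cyclin A (10 or 19 nM), Rb fragment substrate, 25 μM [32P/33P]ATP, HEPES pH 7.4, 30 °C for 60 or 75 min under initial-rate conditions. Filter capture and phosphorimager readout; apparent Ki fitted to competitive or tight-binding competitive inhibition.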

Assay [3] relates to HCT-116 cell line. Kind of assay: Inhibition of cell growth, tetrazolium salt (MTT) assay. Format: cell-based. Particulars: Homo sapiens, HCT-116, 120 h, MTT, three to five days, read-out: HCT-116 IC50. A digest of the protocol:
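Growth inhibition is scored relative to cells receiving only 0.5% (v/v) DMSO. Plated cells rest 4 h, then take compound for three to five days at 37° C; MTT reduction to formazan is read at 540 nm.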

Structures can show the parent of a compound that is named as a salt. Where two headings read alike, the source gives them in different places.

Sequence of human CDK4 and genetically truncated (1-264) cyclin D3 (P11802 whole entry, the tested form may be a part): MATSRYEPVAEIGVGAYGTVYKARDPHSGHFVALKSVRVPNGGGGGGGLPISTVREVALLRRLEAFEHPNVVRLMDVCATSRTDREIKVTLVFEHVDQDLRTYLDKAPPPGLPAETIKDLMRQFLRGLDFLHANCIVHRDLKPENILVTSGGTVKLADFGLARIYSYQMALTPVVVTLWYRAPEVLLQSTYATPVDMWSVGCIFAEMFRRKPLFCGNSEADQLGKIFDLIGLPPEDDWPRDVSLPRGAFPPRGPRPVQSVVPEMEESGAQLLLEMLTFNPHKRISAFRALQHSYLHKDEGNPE
Sequence of human CDK4 and genetically truncated (1-264) cyclin D3 (P30281 1-264 partner): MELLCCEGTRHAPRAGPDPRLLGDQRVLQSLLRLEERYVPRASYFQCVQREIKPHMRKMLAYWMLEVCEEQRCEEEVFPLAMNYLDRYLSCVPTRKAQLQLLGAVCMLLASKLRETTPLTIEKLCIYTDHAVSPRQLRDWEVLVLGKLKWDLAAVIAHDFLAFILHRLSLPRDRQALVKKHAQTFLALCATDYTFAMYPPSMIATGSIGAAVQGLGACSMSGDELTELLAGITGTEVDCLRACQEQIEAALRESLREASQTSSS

With `Nc1nc(NC2CCN(S(=O)(=O)CCN3CCCC3c3ccccc3)CC2)sc1C(=O)c1c(F)cccc1F` (stereo not shown) [Example K29, Trifluoroacetic Acid Salt], the Ki was 1.6 nM in assay [1] and 3.7 nM in assay [2]. In addition, the IC50 amounted to 160 nM in assay [3] (first HCT-116 column (c4)) and 510 nM in assay [3] (second HCT-116 column (c5)).
Take `CN(CCS(=O)(=O)N1CCC(Nc2nc(N)c(C(=O)c3c(F)cccc3F)s2)CC1)C1CCCC1` [Example K30, (4-Amino-2-{1-[2-(cyclopentyl-methyl-amino)-ethanesulfonyl]-piperidin-4-ylamino}-thiazol-5-yl)-(2,6-difluoro-phenyl)-methanone Trifluoroacetic Acid Salt.]: the Ki in assay [1] is 2.4 nM; in assay [2] it was 9.4 nM. Further, the IC50 came out at 190 nM in assay [3] (first HCT-116 column (c4)) and 620 nM in assay [3] (second HCT-116 column (c5)).
For `Nc1nc(NC2CCN(S(=O)(=O)CCNC3CCS(=O)(=O)C3)CC2)sc1C(=O)c1c(F)cccc1F` (stereo not shown) [Example K31, (4-Amino-2-{1-[2-(1,1-dioxo-tetrahydro-1-lamda-6-thiophen-3-ylamino)-ethanesulfonyl]-piperidin-4-ylamino}-thiazol-5-yl)-(2,6-difluoro-phenyl)-methanone Trifluoroacetic Acid Salt.] the same measures were 4.3 nM, 5.5 nM, more than 5000 nM and more than 5000 nM.
For `Nc1nc(NC2CCN(S(=O)(=O)CCN3CC=CCC3)CC2)sc1C(=O)c1c(F)cccc1F` [Example K32, (4-Amino-2-{1-[2-(3,6-dihydro-2H-pyridin-1-yl)-ethanesulfonyl]-piperidin-4-ylamino}-thiazol-5-yl)-(2,6-difluoro-phenyl)-methanone Trifluoroacetic Acid Salt.] the same measures were 2.1 nM, 6.2 nM, 190 nM and 1400 nM.
In the same order, the values of `CNCCS(=O)(=O)N1CCC(Nc2nc(N)c(C(=O)c3c(F)cccc3F)s2)CC1` [Example K33, {4-Amino-2-[1-(2-methylamino-ethanesulfonyl)-piperidin-4-ylamino]-thiazol-5-yl}-(2,6-difluoro-phenyl)-methanone Trifluoroacetic Acid Salt.] are 0.64 nM, 5.6 nM, 650 nM and 5000 nM.
As for `Nc1nc(NC2CCN(S(=O)(=O)CCn3cccc3)CC2)sc1C(=O)c1c(F)cccc1F` [Example K34, {4-Amino-2-[1-(2-pyrrol-1-yl-ethanesulfonyl)-piperidin-4-ylamino]-thiazol-5-yl}-(2,6-difluoro-phenyl)-methanone Trifluoroacetic Acid Salt.], the values for the Ki in assay [1] and in assay [2] were 5.4 nM and 6 nM, respectively. Further, the IC50 in assay [3] (first HCT-116 column (c4)) is 280 nM; in assay [3] (second HCT-116 column (c5)), 1200 nM.
For `Nc1nc(NC2CCN(S(=O)(=O)CCN3CCCC3)CC2)sc1C(=O)c1c(F)cccc1F` [Example K35, 1-{4-Amino-2-[1-(2-pyrrolidin-1-yl-ethanesulfonyl)-piperidin-4-ylamino]-thiazol-5-yl}-1-(2,6-difluoro-phenyl)-methanone.] the same measures were 1.1 nM, 3 nM, 140 nM and 450 nM.
In the same order, the values of `Nc1nc(NC2CCN(S(=O)(=O)CCN3CC=CC3)CC2)sc1C(=O)c1c(F)cccc1F` [Example K36, (4-Amino-2-{1-[2-(2,5-dihydro-pyrrol-1-yl)-ethanesulfonyl]-piperidin-4-ylamino}-thiazol-5-yl)-(2,6-difluoro-phenyl)-methanone.] are 6.6 nM, 7.5 nM, 650 nM and 1900 nM.
In the case of `CN(CCS(=O)(=O)N1CCC(Nc2nc(N)c(C(=O)c3c(F)cccc3F)s2)CC1)c1ccccc1` [Example K37, (4-Amino-2-{1-[2-(methyl-phenyl-amino)-ethanesulfonyl]-piperidin-4-ylamino}-thiazol-5-yl)-(2,6-difluoro-phenyl)-methanone Trifluoroacetic Acid Salt.], the Ki in assay [1] turned out to be 3.2 nM; in assay [2], 7 nM. In addition, the IC50 was 310 nM in assay [3] (first HCT-116 column (c4)) and 1300 nM in assay [3] (second HCT-116 column (c5)).
Turning to `Nc1nc(NC2CCN(S(=O)(=O)CCSC3CCCC3)CC2)sc1C(=O)c1c(F)cccc1F` [Example K38, {4-Amino-2-[1-(2-cyclopentylsulfanyl-ethanesulfonyl)-piperidin-4-ylamino]-thiazol-5-yl}-(2,6-difluoro-phenyl)-methanone Trifluoroacetic Acid Salt.], the Ki in assay [1] stood at 6.4 nM; in assay [2] it was 7.9 nM. Also, the IC50 in assay [3] (first HCT-116 column (c4)) was 460 nM; in assay [3] (second HCT-116 column (c5)), 3000 nM.
For `CN(CCS(=O)(=O)N1CCC(Nc2nc(N)c(C(=O)c3c(F)cccc3F)s2)CC1)Cc1ccccc1` [Example K39, (4-Amino-2-{1-[2-(benzyl-methyl-amino)-ethanesulfonyl]-piperidin-4-ylamino}-thiazol-5-yl)-(2,6-difluoro-phenyl)-methanone] the same measures were 1.8 nM, 1.4 nM, 44 nM and 170 nM.
In the same order, the values of `Cc1cccc(CNCCS(=O)(=O)N2CCC(Nc3nc(N)c(C(=O)c4c(F)cccc4F)s3)CC2)c1` [Example K41, (4-Amino-2-{1-[2-(3-methyl-benzylamino)-ethanesulfonyl]-piperidin-4-ylamino}-thiazol-5-yl)-(2,6-difluoro-phenyl)-methanone] are 1.9 nM, 0.63 nM, 70 nM and 170 nM.
In the same order, the values of `CC[C@H](NCCS(=O)(=O)N1CCC(Nc2nc(N)c(C(=O)c3c(F)cccc3F)s2)CC1)c1ccccc1` [Example K42, (4-Amino-2-{1-[2-(1S-phenyl-propylamino)-ethanesulfonyl]-piperidin-4-ylamino}-thiazol-5-yl)-(2,6-difluoro-phenyl)-methanone] are 1.9 nM, 1 nM, 50 nM and 150 nM.
Consider `CC1CC(NCCS(=O)(=O)N2CCC(Nc3nc(N)c(C(=O)c4c(F)cccc4F)s3)CC2)CC(C)(C)C1` (stereo not shown) [Example K44], for which the Ki was 2.5 nM in assay [1] and 0.49 nM in assay [2]. Besides, the figures for the IC50 in assay [3] (first HCT-116 column (c4)) and in assay [3] (second HCT-116 column (c5)) were 100 nM and 360 nM, respectively.
Regarding `Nc1nc(NC2CCN(S(=O)(=O)CCNCc3cccc(F)c3F)CC2)sc1C(=O)c1c(F)cccc1F` [Example K45, (4-Amino-2-{1-[2-(2,3-difluoro-benzylamino)-ethanesulfonyl]-piperidin-4-ylamino}-thiazol-5-yl)-(2,6-difluoro-phenyl)-methanone], the Ki was 1 nM in assay [1] and 0.82 nM in assay [2]. Also, the results for the IC50 in assay [3] (first HCT-116 column (c4)) and in assay [3] (second HCT-116 column (c5)) were 50 nM and 170 nM, respectively.
Turning to `CC[C@@H](NCCS(=O)(=O)N1CCC(Nc2nc(N)c(C(=O)c3c(F)cccc3F)s2)CC1)c1ccccc1` [Example K46, (4-Amino-2-{1-[2-(1 R-phenyl-propylamino)-ethanesulfonyl]-piperidin-4-ylamino}-thiazol-5-yl)-(2,6-difluoro-phenyl)-methanone], the Ki in assay [1] was 2.1 nM; in assay [2], 0.81 nM. The figures for the IC50 in assay [3] (first HCT-116 column (c4)) and in assay [3] (second HCT-116 column (c5)) were 130 nM and 260 nM, respectively.
For the compound `Nc1nc(NC2CCN(S(=O)(=O)CCN(CC3CC3)CC3CC3)CC2)sc1C(=O)c1c(F)cccc1F` [Example K54, (4-Amino-2-{1-[2-(bis-cyclopropylmethyl-amino)-ethanesulfonyl]-piperidin-4-ylamino}-thiazol-5-yl)-(2,6-difluoro-phenyl)-methanone], the values for the Ki in assay [1] and in assay [2] were 1.3 nM and 5 nM, respectively. Further, the figures for the IC50 in assay [3] (first HCT-116 column (c4)) and in assay [3] (second HCT-116 column (c5)) were 280 nM and 800 nM, respectively.
For `CN(C)CCSc1ccc(S(=O)(=O)N2CCC(Nc3nc(N)c(C(=O)c4c(F)cccc4F)s3)CC2)cn1` [Example L1, 1-(4-Amino-2-{1-[6-(2-dimethylamino-ethylsulfanyl)-pyridine-3-sulfonyl]-piperidin-4-ylamino}-thiazol-5-yl)-1-(2,6-difluoro-phenyl)-methanone Dihydrochloride.] the same measures were 0.3 nM, 0.62 nM, 78 nM and more than 500 nM.
For `Nc1nc(NC2CCN(S(=O)(=O)c3ccc(Sc4ccccn4)nc3)CC2)sc1C(=O)c1c(F)cccc1F` [Example L2, 1-(4-Amino-2-{1-[6-(pyridin-2-ylsulfanyl)-pyridine-3-sulfonyl]-piperidin-4-ylamino}-thiazol-5-yl)-1-(2,6-difluoro-phenyl)-methanone Dihydrochloride.] the same measures were 2.7 nM, 1.5 nM, more than 500 nM and more than 500 nM.

The IC50 is the concentration needed to halve the response being measured.
